Data reported in patent publication US6653300B2, “Pyrazole compounds useful as protein kinase inhibitors” (Vertex Pharmaceuticals Incorporated, priority 2000, dated 2003).
pKi: −log10 of the molar value.

Target: T1, GSK-3β (AA 1-420) (Homo sapiens, UniProt P49841)
T1 construct: GSK-3β (AA 1-420)
Test: Ki determination for the inhibition of GSK-3 (coupled enzyme system)
Type: biochemical
Settings: 20 μM ATP, 20 nM GSK-3β, 30° C.
Protocol: Compounds were screened for their ability to inhibit GSK-3β (AA 1-420) activity using a standard coupled enzyme system (Fox et al. (1998) Protein Sci. 7, 2249). Reactions were carried out in a solution containing 100 mM HEPES (pH 7.5), 10 mM MgCl2, 25 mM NaCl, 300 μM NADH, 1 mM DTT and 1.5% DMSO. Final substrate concentrations in the assay were 20 μM ATP (Sigma Chemicals, St Louis, Mo.) and 300 μM peptide (HSSPHQS (PO3H2) EDEEE, American Peptide, Sunnyvale, Calif.). Reactions were carried out at 30° C. and 20 nM GSK-3β. Final concentrations of the components of the coupled enzyme system were 2.5 mM phosphoenolpyruvate, 300 μM NADH, 30 μg/ml pyruvate kinase and 10 μg/ml lactate dehydrogenase.
An assay stock buffer solution was prepared containing all of the reagents listed above with the exception of ATP and the test compound of interest. The assay stock buffer solution (175 μl) was incubated in a 96 well plate with 5 μl of the test compound of interest at final concentrations spanning 0.002 μM to 30 μM at 30° C. for 10 min. […] The reaction was initiated by the addition of 20 μl of ATP (final concentration 20 μM). Rates of reaction were obtained using a Molecular Devices Spectramax plate reader (Sunnyvale, Calif.) over 10 min at 30° C. The Ki values were determined from the rate data as a function of inhibitor concentration.

T1 sequence (P49841 whole entry, the tested form may be a part): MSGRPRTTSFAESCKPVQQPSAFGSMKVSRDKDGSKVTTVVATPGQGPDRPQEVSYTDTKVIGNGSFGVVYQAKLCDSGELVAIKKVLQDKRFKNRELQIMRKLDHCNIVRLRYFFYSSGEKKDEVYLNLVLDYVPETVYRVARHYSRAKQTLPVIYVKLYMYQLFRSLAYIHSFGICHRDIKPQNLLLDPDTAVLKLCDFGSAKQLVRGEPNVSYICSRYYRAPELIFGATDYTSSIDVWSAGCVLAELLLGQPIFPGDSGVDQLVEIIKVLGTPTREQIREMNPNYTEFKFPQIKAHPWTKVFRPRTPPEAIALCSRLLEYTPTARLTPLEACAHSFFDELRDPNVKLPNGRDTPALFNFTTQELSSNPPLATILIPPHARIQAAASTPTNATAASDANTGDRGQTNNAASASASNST

Row | pKi | SMILES
1 | > 7.00 | Cc1cc(Nc2nc(Nc3ccc(Cl)cc3)nc3c2CCCC3)n[nH]1 [IIc-78, [2-(4-Chlorophenylamino)-5,6,7,8-tetrahydroquinazolinin-4-yl]-(5-methyl-2H-pyrazol-3-yl)-amine]
2 | 6.00 to 7.00 | COCc1cc(Nc2cc(C)[nH]n2)nc(Nc2ccccc2)n1 [IIIc-23, (6-Methoxymethyl-2-phenylamino-pyrimidin-4-yl)-(5-methyl-2H-pyrazol-3-yl)-amine]
3 | > 7.00 | Cc1cc(Nc2cc(-c3ccccc3)nc(Oc3ccc(NC(=O)C(C)C)cc3)n2)n[nH]1 [IIIb-13]
4 | > 7.00 | COCc1cc(Nc2cc(C)[nH]n2)nc(Nc2ccc(Cl)cc2)n1 [IIIc-21, [2-(4-Chlorophenyl)amino-6-methoxymethyl-pyrimidin-4-yl]-(5-methyl-2H-pyrazol-3-yl)-amine]
5 | 5.15 to 6.00 | CCC(=O)Nc1ccc(Sc2nc(CO)cc(Nc3cc(C)n[nH]3)n2)cc1 [IIIa-45, [6-Hydroxymethyl-2-(4-propionylamino-phenyl-sulfanyl)-pyrimidin-4-yl]-(5-methyl-2H-pyrazol-3-yl)-amine]
6 | 6.00 to 7.00 | Cc1cc(Nc2cc(-c3ccccc3)nc(Oc3ccc4ccccc4c3)n2)n[nH]1 [IIIb-12]
7 | 5.15 to 6.00 | CNC(=O)c1cc(Nc2cc(C)[nH]n2)nc(Sc2ccc(NC(C)=O)cc2)n1 [IIIa-49]
8 | 5.15 to 6.00 | Cc1cc(Nc2cc(-c3ccco3)[nH]n2)nc(Nc2nc3ccccc3[nH]2)n1 [IIIc-17, [2-(Benzimidazol-2-ylamino)-6-methyl-pyrimidin-4-yl]-[5-(Furan-2-yl)-2H-pyrazol-3-yl]-amine]
9 | 6.00 to 7.00 | Cc1cc(Nc2cc(N3CCN(C)CC3)nc(SCc3cccc(Cl)c3)n2)n[nH]1 [IIIa-30, [2-(3-Chloro-benzylsulfanyl)-6-(4-methylpiperazin-1-yl)-pyrimidin-4-yl]-(5-methyl-2H-pyrazol-3-yl)-amine]
10 | 5.15 to 6.00 | Cc1cc(Nc2cc(N3CCN(C)CC3)nc(SCc3ccccc3)n2)n[nH]1 [IIIa-28, [2-Benzylsulfanyl-6-(4-methylpiperazin-1-yl)-pyrimidin-4-yl]-(5-methyl-2H-pyrazol-3-yl)-amine]
11 | 6.00 to 7.00 | COc1ccc(CSc2nc(Nc3cc(C)[nH]n3)cc(N3CCN(C)CC3)n2)cc1 [IIIa-31, [2-(4-methoxy-benzylsulfanyl)-6-(4-methylpiperazin-1-yl)-pyrimidin-4-yl]-(5-methyl-2H-pyrazol-3-yl)-amine]
12 | 5.15 to 6.00 | Cc1cc(Nc2cc(-c3ccccc3)[nH]n2)nc(Nc2nc3ccccc3[nH]2)n1 [IIIc-16, [2-(Benzimidazol-2-ylamino)-6-methyl-pyrimidin-4-yl]-(5-phenyl-2H-pyrazol-3-yl)-amine]
13 | 5.15 to 6.00 | c1ccc(Nc2nc(Nc3n[nH]c4ccccc34)c3ccccc3n2)cc1 [IIc-70, (1H-Indazol-3-yl)-(2-phenylamino-quinazolin-4-yl)-amine]
14 | > 7.00 | Cc1cc(Nc2cc(C)[nH]n2)nc(C(C)(C)c2ccccc2)n1 [IIId-21]
15 | > 7.00 | Cc1cc(Nc2cc(C)[nH]n2)nc(Nc2ccc(Cl)cc2)n1 [IIIc-18, [2-(4-Chlorophenylamino)-6-methyl-pyrimidin-4-yl]-(5-methyl-2H-pyrazol-3-yl)-amine]
16 | > 7.00 | N#CCc1ccc(Nc2nc(Nc3n[nH]c4ccccc34)c3ccccc3n2)cc1 [IIc-77, [2-(4-Cyanomethylphenylamino)-quinazolin-4-yl]-(1H-indazol-3-yl)-amine]
17 | 6.00 to 7.00 | Cc1cc(Nc2nc(Nc3ccccc3)nc(C)c2C)n[nH]1 [IIIc-20, (5,6-Dimethyl-2-phenylamino-pyrimidin-4-yl)-(5-methyl-2H-pyrazol-3-yl)-amine]
18 | 6.00 to 7.00 | COc1cc(-c2cc(Nc3cc(C)[nH]n3)nc(Nc3ccc(S(N)(=O)=O)cc3)n2)cc(OC)c1OC [IIIc-8, (5-Methyl-2H-pyrazol-3-yl)-[2-(4-sulfamoylphenylamino)-6-(3,4,5-trimethoxyphenyl)-pyrimidin-4-yl]-amine]
19 | 6.00 to 7.00 | Cc1cc(Nc2cc(-c3ccccc3)nc(Nc3ccccc3)n2)n[nH]1 [IIIc-1, (5-Methyl-2H-pyrazol-3-yl)-(6-phenyl-2-phenylamino-pyrimidin-4-yl)-amine]
20 | 5.15 to 6.00 | CCC(=O)Nc1ccc(Sc2nc(COC)cc(Nc3cc(C)[nH]n3)n2)cc1 [IIIa-38, [6-Methoxymethyl-2-(4-propionylamino-phenyl-sulfanyl)-pyrimidin-4-yl]-(5-methyl-2H-pyrazol-3-yl)-amine]
21 | > 7.00 | Cc1cc(Nc2nc(C(C)(C)c3ccccc3)nc3c2CCCCC3)n[nH]1 [IId-14]
22 | 6.00 to 7.00 | Cc1cc(Nc2nc(Nc3ccccc3)nc3c2CCCCC3)n[nH]1 [IIc-79, (5-Methyl-2H-pyrazol-3-yl)-(2-phenylamino-6,7,8,9-tetrahydro-5H-cycloheptapyrimidin-4-yl)-amine]
23 | 5.15 to 6.00 | COCc1cc(Nc2cc(C)[nH]n2)nc(Nc2nc3ccccc3[nH]2)n1 [IIIc-22, [2-(Benzimidazol-2-ylamino)-6-methoxymethyl-pyrimidin-4-yl]-(5-methyl-2H-pyrazol-3-yl)-amine]
24 | 5.15 to 6.00 | COc1cc(CSc2nc(Nc3cc(C)[nH]n3)cc(N3CCCC3)n2)cc(OC)c1 [IIIa-41, [2-(3,5-Dimethoxy-benzylsulfanyl)-6-pyrrolidin-4-yl-pyrimidin-4-yl]-(5-methyl-2H-pyrazol-3-yl)-amine]
25 | 6.00 to 7.00 | Cc1cc(Nc2cc(N3CCOCC3)nc(SCc3ccccc3)n2)n[nH]1 [IIIa-29, [2-Benzylsulfanyl-6-morpholin-4-yl-pyrimidin-4-yl]-(5-methyl-2H-pyrazol-3-yl)-amine]
26 | 6.00 to 7.00 | CC(=O)Nc1ccc(Oc2nc(Nc3cc(C)[nH]n3)cc(-c3ccccc3)n2)cc1 [IIIb-11]
27 | > 7.00 | Cc1cc(Nc2nc(Nc3ccc(Cl)cc3)nc(C)c2C)n[nH]1 [IIIc-19, [2-(4-Chlorophenyl)amino-5,6-dimethyl-pyrimidin-4-yl]-(5-methyl-2H-pyrazol-3-yl)-amine]
28 | > 7.00 | Cc1cc(Nc2cc(C)[nH]n2)nc(Nc2ccccc2)n1 [IIIc-24, (6-Methyl-2-phenylamino-pyrimidin-4-yl)-(5-methyl-2H-pyrazol-3-yl)-amine]
29 | 5.15 to 6.00 | Cc1cc(Nc2cc(N3CCOCC3)nc(SCc3ccc(S(=O)(=O)N4CCOCC4)cc3)n2)n[nH]1 [IIIa-35, (5-Methyl-2H-pyrazol-3-yl)-{2-[4-(morpholinesulfonyl)-benzylsulfanyl]-6-morpholin-4-yl-pyrimidin-4-yl}-amine]
30 | 6.00 to 7.00 | c1ccc(C2CC2c2nc(Nc3n[nH]c4ccccc34)c3ccccc3n2)cc1 (stereo not drawn) [IId-16, (1H-Indazol-3-yl)-[2-(2-phenyl-cyclopropyl)-quinazolin-4-yl]-amine]

Row | SMILES | pKi
31 | CCC(=O)Nc1ccc(Sc2nc(Nc3cc(C)[nH]n3)cc(-c3ccccc3)n2)cc1 [IIIa-15, (5-Methyl-2H-pyrazol-3-yl)-[6-phenyl-2-(4-propionylamino-phenylsulfanyl)-pyrimidin-4-yl]-amine] | 5.15 to 6.00
32 | Cc1cc(Nc2nc(Nc3ccccc3)nc3c2CCCC3)n[nH]1 [IIc-45, (5-Methyl-2H-pyrazol-3-yl)-(2-phenylamino-5,6,7,8-tetrahydroquinazolinin-4-yl)-amine] | 6.00 to 7.00
33 | CC(=O)Nc1ccc(Sc2nc(Nc3cc(C)[nH]n3)cc(-c3ccccc3)n2)cc1 [IIIa-11, [2-(4-Acetamido-phenylsulfanyl)-6-phenyl-pyrimidin-4-yl]-(5-methyl-2H-pyrazol-3-yl)-amine] | 6.00 to 7.00
